Values quoted from earlier work, collected in the CATMoS acute toxicity set (Mansouri et al. 2021).

Assay: rat acute oral toxicity
Details: in vivo

CNC(=O)Oc1ccc(N=CN(C)C)c(C)c1
LD50: 7.2 mg/kg

CC(C)(C)NCC(O)c1cc(Cl)c(N)c(C(F)(F)F)c1 (centres undefined)
LD50: 306 mg/kg

CCC(c1ccccc1)c1noc(CCN(CC)CC)n1 (centres undefined)
LD50: 1400 mg/kg

N#Cc1cccnc1
LD50: 1180 mg/kg

Nc1ccccc1C(=O)O
LD50: 5410 mg/kg

CCCCCCCCOC(CBr)c1ccc(C(C)(C)C)cc1 (centres undefined)
LD50: 250 mg/kg

OCCNC1CCCCC1
LD50: 38300 mg/kg

CC(C)=CC(=O)O
LD50: 3560 mg/kg

CCOC(C1=NCC(O)CN1)c1ccccc1 (centres undefined)
LD50: 1750 mg/kg

CC(=O)N(CCN(C)C)n1cc(-c2ccccc2)c2ccccc21
LD50: 1100 mg/kg

COc1ccc2nc3c(c(N)c2c1)CCCC3
LD50: 753 mg/kg

CCCCN(CCCC)N=O
LD50: 1200 mg/kg

COP(=S)(OC)SCSc1ccccc1
LD50: 16 mg/kg

CC1(C)NC(=O)NC1=O
LD50: 7800 mg/kg

O=C(Cn1c(=O)sc2ccc(Cl)cc21)N1CCNCC1
LD50: 734 mg/kg

CCC(CO)NC(=O)C1C=C2c3cccc4[nH]cc(c34)CC2N(C)C1 (centres undefined)
LD50: 93 mg/kg

O=c1c2ccccc2nc2n1OCC2
LD50: 395 mg/kg

COP(=S)(OC)SCC(=O)O
LD50: 2500 mg/kg

c1ccc(CC2CCNCC2)cc1
LD50: 540 mg/kg

Cc1nc2ccccc2c(=O)n1-c1ccccc1C(=O)O
LD50: 1550 mg/kg

NNCCc1ccccc1
LD50: 210 mg/kg

CCN(CCNS(C)(=O)=O)c1ccc(N)c(C)c1
LD50: 400 mg/kg

CCNC(=O)/C=C/c1cccc(Br)c1
LD50: 4440 mg/kg

CCOP(=S)(OCC)SCn1nc(-c2ccccc2)ccc1=O
LD50: 555 mg/kg

COP(=S)(OC)Oc1cc(Cl)c([N+](=O)[O-])c(Cl)c1
LD50: 750 mg/kg

COc1ccc2c(=O)c3ccccc3oc2c1CN1CCCCC1
LD50: 183 mg/kg

CC(C)COCC(C)O (centres undefined)
LD50: 4290 mg/kg

Cc1ccc(S(=O)(=O)NC(=O)NC2C3CCC(C)(C2O)C3(C)C)cc1 (centres undefined)
LD50: 18000 mg/kg

CCCCNC(=N)NC(=N)N
LD50: 320 mg/kg

O=C(Nc1cc(Cl)cc(Cl)c1O)c1c(O)c(Cl)cc(Cl)c1Cl
LD50: 1000 mg/kg

Oc1cc(Cl)ccc1Oc1ccc(Cl)cc1Cl
LD50: 3700 mg/kg

Nc1ccc2c(c1)C1CCCCC1N2 (centres undefined)
LD50: 275 mg/kg

CN1C(C(=O)Nc2ccccn2)=C(OC(=O)C23CC4CC(CC(C4)C2)C3)c2sc(Cl)cc2S1(=O)=O
LD50: 100 mg/kg

CC(C)CCCCCCO
LD50: 2980 mg/kg

C=CC(=O)N(CC)CC
LD50: 1420 mg/kg

COc1cc(C(=O)OC2CCC(N3CCCCC3)CC2)cc(OC)c1OC (centres undefined)
LD50: 650 mg/kg

CCCCC1C(=O)N(c2ccccc2)N(c2ccc(O)cc2)C1=O (centres undefined)
LD50: 329 mg/kg

CC1(C)S[C@@H]2[C@H](NC(=O)C(C(=O)Oc3ccc4c(c3)CCC4)c3ccccc3)C(=O)N2[C@H]1C(=O)O (some centres undefined)
LD50: 4450 mg/kg

OC1CCN(c2ccc(-c3ccc(Cl)cc3Cl)nn2)CC1
LD50: 300 mg/kg

C[N+]1(CCN(C2CCCCC2)C2CCCCC2)CCCCC1
LD50: 650 mg/kg

CCCCCCCCNC(C)C(O)c1ccc(SC(C)C)cc1 (centres undefined)
LD50: 1740 mg/kg

O=S(=O)(O)c1c(O)ccc2ccccc12
LD50: 3170 mg/kg

CC(=O)SCC(=O)N=c1[nH]c2ccccc2s1
LD50: 400 mg/kg

COc1ccc(OC)c(Cc2cnc3nc(N)nc(N)c3c2C)c1
LD50: 1170 mg/kg

CCOP(=O)(OCC)OC(=C(Br)Br)c1ccc(Cl)cc1Cl
LD50: 78.1 mg/kg

CCCCC/C(=C/c1ccccc1)CO
LD50: 4000 mg/kg

C/N=N/Nc1ccccc1
LD50: 420 mg/kg

CC(C)c1ccccc1N
LD50: 1180 mg/kg

CC1COC(c2ccccc2)O1 (centres undefined)
LD50: 3000 mg/kg

CCC(CC)C(=O)OCCOCCOCCOC(=O)C(CC)CC
LD50: 6000 mg/kg

Cc1cccc(N2CC(CO)OC2=O)c1 (centres undefined)
LD50: 1220 mg/kg

C=CCCC=O
LD50: 620 mg/kg

CN(N=O)C1CCS(=O)(=O)C1 (centres undefined)
LD50: 750 mg/kg

CCCCCCOCC(O)COc1ccccc1C(=O)O (centres undefined)
LD50: 2150 mg/kg

CCOC(N)=O
LD50: 1810 mg/kg

c1ccc(-c2nnco2)cc1
LD50: 440 mg/kg

CC1OCN=C(c2ccccc2)S1 (centres undefined)
LD50: 655 mg/kg

CC(=O)[C@]1(O)Cc2c(O)c3c(c(O)c2[C@@H](O[C@H]2C[C@H](N)[C@H](O)[C@H](C)O2)C1)C(=O)c1ccccc1C3=O
LD50: 5.43 mg/kg

O=C(O)c1ccccc1Nc1cccc(Cl)c1CO
LD50: 2400 mg/kg

Nc1ccc([N+](=O)[O-])cc1[N+](=O)[O-]
LD50: 285 mg/kg

CC(CCl)N(C)C (centres undefined)
LD50: 166 mg/kg

CCN1CC(CC(N)=O)CC2c3cccc4[nH]cc(c34)CC21 (centres undefined)
LD50: 38.5 mg/kg

OC(Cn1cncn1)(c1ccc(F)cc1)c1ccccc1F (centres undefined)
LD50: 1140 mg/kg

NC(Cl)c1nc(Cl)c(Cl)c(Cl)c1Cl (centres undefined)
LD50: 1190 mg/kg

CC(Br)(CCl)CBr (centres undefined)
LD50: 780 mg/kg

CCOC(=O)C1(c2ccccc2)CCN(C)CC1
LD50: 170 mg/kg

Cc1cccc(Cl)c1NC(=O)/C=C1\SCC(=O)N1C
LD50: 1350 mg/kg

CC(C)OC(=O)c1c[n+](C)c2n(c1=O)C(C)CCC2 (centres undefined)
LD50: 1200 mg/kg

C=C(C)C(=O)OCC(CCCC)CCCCCC (centres undefined)
LD50: 26000 mg/kg

ClC(Cl)=C(c1ccc(Cl)cc1)c1ccc(Cl)cc1
LD50: 880 mg/kg

CC(Cl)(Cl)CCl
LD50: 1140 mg/kg

O=C1C(=C(Cl)Cl)C(=O)C2(Cl)C3C=CC(C3)C12Cl (centres undefined)
LD50: 2760 mg/kg

CCCCN(CCCC)S(=O)(=O)c1ccc(Cl)cc1
LD50: 500 mg/kg

CCCCCCCCCCOS(=O)(=O)O
LD50: 1950 mg/kg

O=C(Cl)C(Cl)(Cl)Cl
LD50: 600 mg/kg

NC(=O)CBr
LD50: 100 mg/kg

CCOP(=S)(OCC)Oc1cc(Cl)c(I)cc1Cl
LD50: 140 mg/kg

ClCCOCCOCCCl
LD50: 250 mg/kg

CCN(CC)c1ccc(C=O)cc1
LD50: 6400 mg/kg

CC(O)COC(=O)CBr (centres undefined)
LD50: 664 mg/kg

CCOC(=O)C=Cc1ccc(Cl)cc1
LD50: 957 mg/kg

CCc1ccc(C)nc1
LD50: 368 mg/kg

Clc1cccc(Cl)c1Nc1ncccn1
LD50: 4720 mg/kg

O=c1ncc2[nH]cnc2[nH]1
LD50: 1040 mg/kg

CC(C)(O)c1ccccc1
LD50: 1300 mg/kg

CC1(C)S[C@@H]2[C@H](NC(=O)COc3ccc(Cl)c(Cl)c3)C(=O)N2[C@H]1C(=O)O
LD50: 2500 mg/kg

CCCOP(=S)(CCl)Sc1ccc(Cl)cc1 (centres undefined)
LD50: 80 mg/kg

CCCCCCc1ccc(C(CBr)OCC(CC)CCCC)cc1 (centres undefined)
LD50: 250 mg/kg

CN(C)S(=O)(=O)c1c(Cl)c(Cl)c(Cl)c2[nH]c(C(F)(F)F)nc12
LD50: 4.77 mg/kg

CCSc1nc(=O)n(CC(C)(C)C)c(=O)n1N
LD50: 3500 mg/kg

CC(=O)CCCO
LD50: 6400 mg/kg

Cc1cc(OCC(=O)N[C@@H]2C(=O)N3[C@@H]2SC(C)(C)[C@@H]3C(=O)O)ccc1Cl
LD50: 4000 mg/kg

CC(C)(O)CC(C)(O)c1ccc(Cl)cc1 (centres undefined)
LD50: 1140 mg/kg

CC12CCC(CC1=O)C2(C)C=O (centres undefined)
LD50: 3100 mg/kg

Cc1cccc(N2CCN(CCCCN3C(=O)CNC3=O)CC2)c1
LD50: 383 mg/kg

COS(=O)(=O)c1ccccc1
LD50: 740 mg/kg

O=NN1CCOC1
LD50: 1500 mg/kg

CN(C)CCCNC1=C2C(=CC=CC2[N+](=O)[O-])N(O)c2ccccc21 (centres undefined)
LD50: 110 mg/kg

CC(=O)Nc1cccc2c3ccccc3n(C)c12
LD50: 3120 mg/kg

O=Cc1ccc([N+](=O)[O-])cc1
LD50: 4700 mg/kg

O=C(O)CCC(=O)OC[C@@H](NC(=O)C(Cl)Cl)[C@H](O)c1ccc([N+](=O)[O-])cc1
LD50: 8300 mg/kg

Cc1ccc(=O)n(-c2ccccc2)c1
LD50: 1300 mg/kg

CCN(CC)S(=O)(=O)CCNC(=O)N(CCCl)N=O
LD50: 60 mg/kg

CCC(N)Cc1c[nH]c2ccccc12 (centres undefined)
LD50: 49 mg/kg

Cc1ccc(C(C)C)cc1O
LD50: 810 mg/kg

COc1cc2nc(N3CCN(C(=O)C4CCCO4)CC3)nc(N)c2cc1OC (centres undefined)
LD50: 5500 mg/kg

CCCCCCOc1ccc(NNC=O)cc1
LD50: 717 mg/kg

CC(C)(C)C(=O)CCc1ccc(Cl)cc1
LD50: 3140 mg/kg

CC(C)(S)C(N)C(=O)O (racemic)
LD50: 365 mg/kg

COP(=S)(OC)SCn1ncccc1=O
LD50: 3.5 mg/kg

CCOP(=S)(OCC)N(SN(C)C(=O)ON=C(C)SC)C(C)C
LD50: 325 mg/kg

COP(=O)(OC)Oc1nc(Cl)c(Cl)cc1Cl
LD50: 869 mg/kg

CC(O)c1ccccc1 (centres undefined)
LD50: 400 mg/kg

CNc1nc(Cl)c(SC)c(N2CCN(C)CC2)n1
LD50: 800 mg/kg

Cn1c([N+](=O)[O-])cnc1/C=C/c1ccnc(N)n1
LD50: 7600 mg/kg

CCCCNC(N)=O
LD50: 1260 mg/kg

CCC(O)CCO (centres undefined)
LD50: 20000 mg/kg

CCCCCCCCCCCC(=O)OCC(O)CO (centres undefined)
LD50: 52900 mg/kg

CNc1nc(C)nc(OC)n1
LD50: 394 mg/kg

CCCCCCCCCC(=O)OCCN1CCN(CCCN2c3ccccc3Sc3ccc(C(F)(F)F)cc32)CC1
LD50: 19 mg/kg

O=CC(Cl)CCl (centres undefined)
LD50: 160 mg/kg

O=NN(CC(F)(F)F)CC(F)(F)F
LD50: 300 mg/kg

O=C(CCCN1CCN2Cc3[nH]c4ccccc4c3CC2C1)c1ccc(F)cc1 (centres undefined)
LD50: 700 mg/kg

O=C1CCc2cc(C(=O)CCN3CCN(c4cccc(Cl)c4)CC3)ccc2N1
LD50: 500 mg/kg

NCCN1CCNCC1
LD50: 2140 mg/kg

CC(C)=CCC/C(C)=C/C#N
LD50: 3100 mg/kg

CN(N=O)c1ccccn1
LD50: 60 mg/kg

Nc1ccc(O)c(C(=O)O)c1
LD50: 2800 mg/kg

COCCOc1cnc(NS(=O)(=O)c2ccccc2)nc1
LD50: 3100 mg/kg

CC1COC(C(Cl)CCl)O1 (centres undefined)
LD50: 620 mg/kg

Cc1ncc([N+](=O)[O-])n1CC(O)CCl (centres undefined)
LD50: 1780 mg/kg

COc1ccc(CN2CCN(C(c3ccc(F)cc3)c3ccc(F)cc3)CC2)c(OC)c1OC
LD50: 307 mg/kg

COCCOc1c(OC)cc(Cc2cnc(N)nc2N)cc1OC
LD50: 1170 mg/kg

c1ccc(Nc2ccc(Nc3ccccc3)cc2)cc1
LD50: 2370 mg/kg

CCOC(=O)Cc1[nH]nc2ccc(Cl)cc12
LD50: 4800 mg/kg

O=C(CO)c1coc(=O)c2c(O)cccc12
LD50: 250 mg/kg

O=Cc1ccc2c(c1)OCO2
LD50: 2700 mg/kg

C=C[Si](Cl)(Cl)CC
LD50: 2830 mg/kg

CCN(CC)CCOC(=O)c1cccnc1
LD50: 8400 mg/kg

CCN(CC(=O)OCC(F)(F)F)c1cccc(C)c1
LD50: 1900 mg/kg

CCOC(=O)C1=CN(C(=O)CC)C2CCCC(C)N2C1=O (centres undefined)
LD50: 2970 mg/kg

CCC(=O)OCc1ccc(OC)cc1
LD50: 3330 mg/kg

CN(Sc1cc(Cl)ccc1Cl)C(=O)Oc1cccc2c1OC(C)(C)C2
LD50: 25 mg/kg

N#CCCOCCOCCO
LD50: 13400 mg/kg

COB(OC)OC
LD50: 6140 mg/kg

C=CCc1cc(OC)c2c(c1)OCO2
LD50: 4260 mg/kg

CCc1c(C)nc2cccc(C)n2c1=O
LD50: 690 mg/kg

C=Cc1ccc(Cl)cc1
LD50: 5200 mg/kg

O=C(CCCN1CCN(c2ccccc2)CC1)c1ccc(F)cc1
LD50: 550 mg/kg

OCC(F)(F)C(F)(F)C(F)(F)C(F)(F)C(F)(F)C(F)(F)C(F)(F)C(F)F
LD50: 4400 mg/kg

CC(=O)Nc1ccc2c(c1)sc1ccccc12
LD50: 1200 mg/kg

CC(C)Nc1nc(Cl)nc(NC(C)C)n1
LD50: 3840 mg/kg

CN(C)CCC=C1c2ccccc2CCc2ccccc21
LD50: 320 mg/kg

FC(F)(F)c1ccc(Cl)cc1Cl
LD50: 2150 mg/kg
